Source: ChEMBL document CHEMBL1144039, “Antioxidant capacity of BO-653, 2,3-dihydro-5-hydroxy-4,6-di-tert-butyl-2,2-dipentylbenzofuran, and uric acid as evaluated by ORAC method and inhibition of lipid peroxidation” (2008)

Assays:
[1] = Antioxidant activity assessed as oxygen radical scavenging activity in presence of human plasma by ORAC method relative to control; format: functional, cell-free
Plasma = experiment: Antioxidant activity in human plasma assessed as inhibition of cholesteryl ester hydroperoxide formation after 60 mins relative to control; format: functional

`CCCCCC1(CCCCC)Cc2c(cc(C(C)(C)C)c(O)c2C(C)(C)C)O1` [BO-653] gave a Ratio AUC [1] of 1.23 and a Ratio (Plasma) of 0.23.

For `Oc1nc(O)c2nc(O)[nH]c2n1` [URIC ACID], the Ratio AUC [1] was 1.52 and the Ratio (Plasma) was 0.78.
